The record followed here is patent US20230201301A1 (priority 2020, published 2023).

The assay has as its system inflammatory cell-types in the lungs. The arrangement: species or system transgenic mice B6.Cg-Tg(K18-ACE2)2Prlmn/J. The following applies: mouse, in vivo, ip.

For the sequence LQEEDTGEYGCV (TLT-1 peptide) [LR12], the “CD4+ T cells in lungs vs vehicle” value was “no effect”, the “CD8+ T cells in lungs vs vehicle” value was “no effect”, the “CD45+ cells in lungs vs vehicle” value is “decrease” and the “NK cells in lungs vs vehicle” value is listed as “no effect”. For the same sequence, the “NKT cells in lungs vs vehicle” value is listed as “lower number”, the “number of monocytes-derived macrophages in lungs vs vehicle” value was “lower”, the “number of neutrophils in lungs vs vehicle” value is “lower” and the “total number of cells in lungs vs vehicle” value is “did not differ”.
